Measured values as given in patent US20240327415A1, “Multicomponent Complexes, Including Salts, Crystalline Forms, and Hydrates and Solvates of ENT1 Inhibitors” (iTeos Belgium SA, priority 2023, published 2024).
Converted amounts (≈) assume the structure as drawn. Read-outs that look alike come from different tables or passages of the source.

What was measured:
Format in all cases: physicochemical
[1] = Dynamic Vapor Sorption (DVS); conditions: for moisture uptake (DVS): 25° C.
Method: (§1) METHOD A: In Example 11, approximately 5-15 mg of sample was placed into a mesh vapor sorption balance pan and loaded into either a DVS Intrinsic or DVS Advantage dynamic vapor sorption balance by Surface Measurement Systems. The sample was subjected to a ramping profile from 40-90% relative humidity (RH) at 10% increments, maintaining the sample at each step until a stable weight had been achieved (dm/dt 0.004%, minimum step length 30 minutes, maximum step length 500 minutes) at 25° C. After completion of the sorption cycle, the sample was dried using the same procedure to 0% RH and then a second sorption cycle back to 40% RH was carried out. Two cycles were performed. The weight change during the sorption/desorption cycles were plotted, allowing the hygroscopic nature of the sample to be determined. XRPD analysis was then carried out on the residual solid.
as §1, with “B:” for “A:”, “Examples 2A, 3, 14, and 17,” for “Example 11,”, “10-20” for “5-15”, “determined.” for “determined. XRPD analysis was then carried out on the residual solid.”
as §1, with “Approximately 10-20” for “METHOD A: In Example 11, approximately 5-15”, “RH” for “relative humidity (RH)”, “min,” for “minutes,”, “min)” for “minutes)”, “determined.” for “determined. XRPD analysis was then carried out on the residual solid.”

[2] = Karl Fischer coulometric titration (water content)
Method: In the examples below, KF titration measured using either an In Motion KF Autosampler or Direct Addition Method. The In Motion KF Autosampler was carried out via the following procedure. 15-20 mg of solid was weighed into a 10 mL glass vial and tightly sealed with a screw cap. Samples were analyzed using a Mettler Toledo C30SX and an InMotion KFOven Autosampler at 130° C. Samples were analyzed in duplicate and an average moisture content reported. See table below for further details.
The Direct Addition Method was carried out via the following procedure. 15-20 mg of solid material was accurately weighed into a vial. The solid was then manually introduced into the titration cell of a Mettler Toledo C30 Compact Titrator. The vial was back-weighed after the addition of the solid and the weight of the added solid entered on the instrument. Titration was initiated once the sample had fully dissolved in the cell. The water content was calculated automatically by the instrument as a percentage and the data printed.

[3] = Variable Temperature X-Ray Powder Diffraction (VT-XRPD)
Method: In the examples below, VT-XRPD analysis was carried out on a Philips X'Pert Pro Multipurpose diffractometer equipped with a temperature chamber. The samples were scanned between 4 and 36° 2θ using Cu K radiation (α1 λ=1.54060 Å; α2=1.54443 Å; β=1.39225 Å; α1: α2 ratio=0.5; most, if not all, B radiation is removed from the beam using an X-ray mirror) running in Bragg-Brentano geometry (step size 0.008° 2θ) using 40 kV/40 mA generator settings. Measurements were carried out from ambient temperature to an upper limit of 250° C., with a final measurement taken after cooling.
VT-XRPD analysis was carried out on a Philips X'Pert Pro Multipurpose diffractometer equipped with a temperature chamber. The samples were scanned between 4 and 36° 2θ using Cu K radiation (α1 λ=1.54060 Å; α2=1.54443 Å; β2=1.39225 Å; α1:α2 ratio=0.5; most, if not all, β radiation is removed from the beam using an X-ray mirror) running in Bragg-Brentano geometry (step size 0.008° 2θ) using 40 kV/40 mA generator settings. Measurements were carried out from ambient temperature to an upper limit of 250° C., with a final measurement taken after cooling.

[4] = pH solubility studies in buffers and biorelevant media (Example 16); conditions: for solubility at 24 h: thermodynamic from solid
Method: Example 16—pH Solubility Studies—(1) Crystalline Form 2 Compound 1 di(hydrogen sulfate) trihydrate, (2) Crystalline Form 3 Compound 1 di(hydrogen sulfate), and (3) Crystalline Form 4 Compound 1 mono(hydrogen sulfate): pH solubility studies were carried out on the prepared crystalline Form 2 Compound 1 di(hydrogen sulfate) trihydrate, crystalline Form 3 Compound 1 di(hydrogen sulfate) and crystalline Form 4 Compound 1 mono(hydrogen sulfate) in the following media: (1) HCl/KCl, pH 1.2; (2) Acetate, pH 4.5; (3) Phosphate, pH 6.8; (4) FaSSIF; (5) FeSSIF; and (6) FaSSGF. Slurries of the hydrogen sulfate forms were prepared in the appropriate medium and stirred at 25° C. For the experiments in the buffer media, the pH of the slurry samples was measured and adjusted as required after 1 hour and 23 hours of the slurrying. Additional solid was added where dissolution was observed post-adjustment. The pH of the samples in the biorelevant media was measured at the 23 hour timepoint. No pH adjustment was made for the biorelevant media. After a total of 24 hours of slurrying, the mother liquors were extracted via centrifugation, and the concentrations and solution purity were determined by HPLC. The residual solids were isolated and analyzed by XRPD and are shown in FIG. 77, FIG. 78, and FIG. 79. The assessment was repeated for some of the samples, where required.

Q: Which “DVS: Dehydrates” value [1] does the source give for `CCCN1CCNCCCNC(=O)c2cc(OC)c(OC)c(c2)OCCC[C@@H](OC(=O)c2cc(OC)c(OC)c(OC)c2)CC1` here?
A: Dehydrates <15% RH

Q: What about the DVS uptake ([1]; at 80% RH) of the same compound?
A: 8.0% uptake at

Q: And the “moisture uptake (DVS)” value ([1]; between 0-10% RH)?
A: about 6.3%

Q: What about the “moisture uptake (DVS)” value ([1]; between 10-80% RH) of the same compound?
A: 1.7%

Q: What about the KF moisture content [2] of the same compound?
A: 6.74% moisture

Q: What about the “VT-XRPD: Conv. To Form 5 at” value [3] of the same compound?
A: at 80-130 °C

Q: What about the “VT-XRPD: Melt from” value [3] of the same compound?
A: Melt from 150 °C

Q: And the “VT-XRPD: input form retained at” value [3]?
A: at 30-50 °C

Q: And the ML purity ([4]; FaSSGF, 25° C., 24 h, pH after 24 h 0.93)?
A: 99.67 % area

Q: What about the solubility at 24 h ([4]; FaSSGF, 25 °C, pH 0.93, fassgf or other biorelevant, FaSSGF, 25° C., 24 h, pH after 24 h 0.93, read-out: Solub.) of the same compound?
A: 81.1 mg/mL (≈ 128 mM)

Q: What about the ML purity ([4]; FaSSIF, 25° C., 24 h, pH after 24 h 1.12) of the same compound?
A: 99.80 % area

Q: And the solubility at 24 h ([4]; FaSSIF, 25 °C, pH 1.12, fassif, FaSSIF, 25° C., 24 h, pH after 24 h 1.12, read-out: Solub.)?
A: 76.6 mg/mL (≈ 121 mM)

Q: What about the ML purity ([4]; FeSSIF, 25° C., 24 h, pH after 24 h 1.07) of the same compound?
A: 99.72 % area

Q: What about the solubility at 24 h ([4]; FeSSIF, 25 °C, pH 1.07, fessif, FeSSIF, 25° C., 24 h, pH after 24 h 1.07, read-out: Solub.) of the same compound?
A: 133 mg/mL (≈ 211 mM)

Q: And the solubility at 24 h ([4]; HCl/KCl buffer, 25 °C, pH 1.2, simulated gastric fluid, pH 1.2 (HCl/KCl), attempt 1, 25° C., 24 h, pH after 24 h 0.98→1.22, read-out: Solub.)?
A: > 86.7 mg/mL

Q: And the solubility at 24 h ([4]; acetate buffer pH 4.5, 25 °C, pH 4.5, aqueous buffer, pH 4.5 buffer media, Attempt 1, 25° C., 24 hours, read-out: solubility)?
A: < 20 mg/mL

Q: And the solubility at 24 h ([4]; acetate buffer, 25 °C, pH 4.5, aqueous buffer, pH 4.5 (Acetate), attempt 1, 25° C., 24 h, pH after 24 h 4.53, read-out: Solub.)?
A: 17.8 mg/mL (≈ 28.2 mM)

Q: And the solubility at 24 h ([4]; acetate buffer, 25 °C, pH 4.5, aqueous buffer, pH 4.5 (Acetate), attempt 2, 25° C., 24 h, pH after 24 h 1.68→4.62, read-out: Solub.)?
A: 94.5 mg/mL (≈ 150 mM)

Q: And the “solution purity of the extracted mother liquors” value ([4]; after 24 hours slurrying in the media (Form 2: all samples except pH 4.5 Attempt 1))?
A: > 99 % area

Q: What about the solubility at 24 h ([4]; buffers and biorelevant media, 25 °C, pH 1.2, aqueous buffer, pH 1.2 and 4.5 buffers and all the biorelevant media, slurry 25° C., 24 hours, read-out: solubility) of the same compound?
A: > 75 mg/mL

Q: What about the pH solubility ([4]; pH 1.2) of the same compound?
A: pH 1.2: >87 mg/mL

Q: And the “pH solubility: residual solid” value ([4]; pH 1.2)?
A: mg/mL, no solid

Q: And the ML purity ([4]; pH 1.2 (HCl/KCl), attempt 1, 25° C., 24 h, pH after 24 h 0.98→1.22)?
A: 99.13 % area

Q: And the pH solubility ([4]; pH 4.5)?
A: pH 4.5: 95 mg/mL

Q: And the “pH solubility: residual solid” value ([4]; pH 4.5)?
A: mg/mL, Form 4

Q: And the ML purity ([4]; pH 4.5 (Acetate), attempt 1, 25° C., 24 h, pH after 24 h 4.53)?
A: 89.50 % area

Q: And the ML purity ([4]; pH 4.5 (Acetate), attempt 2, 25° C., 24 h, pH after 24 h 1.68→4.62)?
A: 99.76 % area

Q: What about the “solution purity of the extracted mother liquors” value ([4]; pH 4.5 Attempt 1) of the same compound?
A: 89 % area

Q: And the pH solubility ([4]; pH 6.8)?
A: pH 6.8: 12 mg/mL

Q: And the “pH solubility: residual solid” value ([4]; pH 6.8)?
A: mg/mL, Gum

Q: What about the ML purity ([4]; pH 6.8 (Phosphate), attempt 1, 25° C., 24 h, pH after 24 h 1.01→6.87) of the same compound?
A: 99.43 % area

Q: What about the solubility at 24 h ([4]; phosphate buffer, 25 °C, pH 6.8, aqueous buffer, pH 6.8 (Phosphate), attempt 1, 25° C., 24 h, pH after 24 h 1.01→6.87, read-out: Solub.) of the same compound?
A: 12 mg/mL (≈ 19 mM)

Q: And the solubility at 24 h ([4]; phosphate buffer, 25 °C, pH 6.8, aqueous buffer, pH 6.8 (Phosphate), attempt 2, 25° C., 24 h, pH after 24 h 4.79→6.90, read-out: Solub.)?
A: 6.1 mg/mL (≈ 9.66 mM)
